Data from patent US8119695B2, “Compounds and methods for treating breast cancer and other diseases” (City of Hope, priority 2003, dated 2012).
Where “and” joins values, the source holds several entries; their conditions need not be identical. Identical values can stand only once. Like-named read-outs stand apart in the source and are kept apart here. Each block holds one compound with its values, some of them ahead of it.

Assays:
Assay type in all cases: cell-based
ERE-TK-luc = ERE-TK-luc reporter without receptor, E2 100 nM
MH100x4 = MH100x4 luciferase reporter without receptor
Text: (§1) MH100x4 is a luciferase reporter with four copies of a GAL4 […] response element. GAL-L refers to the ligand-binding domain of the indicated receptor fused to the C-terminus of the GAL4 DNA binding domain.

ERRα (GAL-ERRa) = assay: MH100x4 luciferase reporter with GAL-ERRa; parameters: Reporter Activity: unit not given here
Text: as §1

ERRβ (GAL-L-ERRb) = biological target: T1, ERRβ (GAL-L-ERRb) (Homo sapiens, UniProt O95718); assay: MH100x4 luciferase reporter with GAL-L-ERRb; parameters: Reporter Activity: unit not given here
T1 construct: expressed in transfected cells
T1 sequence (O95718 208-432 limits assumed): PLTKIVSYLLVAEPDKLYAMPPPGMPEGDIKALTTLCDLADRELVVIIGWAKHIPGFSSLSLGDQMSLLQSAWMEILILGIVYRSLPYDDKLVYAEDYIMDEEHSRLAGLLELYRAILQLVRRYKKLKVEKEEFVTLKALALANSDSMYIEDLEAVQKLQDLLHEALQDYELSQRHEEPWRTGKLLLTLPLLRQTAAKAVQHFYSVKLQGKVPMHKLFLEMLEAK
Text: as §1

ERRγ (GAL-ERRg) = assay: MH100x4 luciferase reporter with GAL-ERRg; parameters: Reporter Activity: unit not given here
Text: as §1

[1] = Table 4, DY39 dose head 0 (1st of 2), None 1
[2] = Table 4, DY39 dose head 0 (2nd of 2), None 1
[3] = Table 2, dose 5 (unit not given), None 0.49
[4] = Table 2, dose 5 (unit not given), None 1.00
[5] = Table 2, dose 5 (unit not given), None 8.54
[6] = Table 2, dose 5 (unit not given), None 1.44
[7] = Table 2, dose 5 (unit not given), None 1.25

Compound: C[C@]12CC[C@@H]3c4ccc(O)cc4CC[C@H]3[C@@H]1CC[C@@H]2O [E2, estradiol, reference compound]
Reporter Activity (ERE-TK-luc): 1.13
Reporter Activity (ERE-TK-luc; Table 6, E2 100 nM alone (no dose head), None 1.44): 1.2

Fold Activation (MH100x4; [1]): 1.08
Reporter Activity (MH100x4; Table 4, DY39 dose head 0 (1st of 2), None 1.14): 1.23
Fold Activation (MH100x4; [2]): 0.89
Reporter Activity (MH100x4; Table 4, DY39 dose head 0 (2nd of 2), None 1.14): 1.02
Fold Activation (MH100x4; Table 4, dose 0.1 (unit not given), None 1/1.03): 0.96
Reporter Activity (MH100x4; Table 4, dose 0.1 (unit not given), None 1.14/1.17): 1.1
Fold Activation (MH100x4; Table 4, dose 0.3 (unit not given), None 1/1.03): 0.96
Reporter Activity (MH100x4; Table 4, dose 0.3 (unit not given), None 1.14/1.17): 1.09
Fold Activation (MH100x4; Table 4, dose 1 (unit not given), None 1/1.03): 0.8
Reporter Activity (MH100x4; Table 4, dose 1 (unit not given), None 1.14/1.17): 0.9
Fold Activation (MH100x4; Table 4, dose 3 (unit not given), None 1/1.03): 0.73
Reporter Activity (MH100x4; Table 4, dose 3 (unit not given), None 1.14/1.17): 0.83
Fold Activation (ERRα (GAL-ERRa); [1]): 1.09
Reporter Activity (ERRα (GAL-ERRa); Table 4, DY39 dose head 0 (1st of 2), None 27.7): 30.2
Fold Activation (ERRα (GAL-ERRa); [2]): 0.95
Reporter Activity (ERRα (GAL-ERRa); Table 4, DY39 dose head 0 (2nd of 2), None 27.7): 26.4
Fold Activation (ERRα (GAL-ERRa); Table 4, dose 0.1 (unit not given), None 1/1.23): 1.08
Reporter Activity (ERRα (GAL-ERRa); Table 4, dose 0.1 (unit not given), None 27.7/34.05): 30
Fold Activation (ERRα (GAL-ERRa); Table 4, dose 0.3 (unit not given), None 1/1.23): 1.09
Reporter Activity (ERRα (GAL-ERRa); Table 4, dose 0.3 (unit not given), None 27.7/34.05): 30.1
Fold Activation (ERRα (GAL-ERRa); Table 4, dose 1 (unit not given), None 1/1.23): 1.2
Reporter Activity (ERRα (GAL-ERRa); Table 4, dose 1 (unit not given), None 27.7/34.05): 33
Fold Activation (ERRα (GAL-ERRa); Table 4, dose 3 (unit not given), None 1/1.23): 1.31
Reporter Activity (ERRα (GAL-ERRa); Table 4, dose 3 (unit not given), None 27.7/34.05): 36.2
Fold Activation (ERRβ (GAL-L-ERRb); [1]): 1.25
Reporter Activity (ERRβ (GAL-L-ERRb); Table 4, DY39 dose head 0 (1st of 2), None 7.21): 9.02
Fold Activation (ERRβ (GAL-L-ERRb); [2]): 1.04
Reporter Activity (ERRβ (GAL-L-ERRb); Table 4, DY39 dose head 0 (2nd of 2), None 7.21): 7.53
Fold Activation (ERRβ (GAL-L-ERRb); Table 4, dose 0.1 (unit not given), None 1/1.2): 1.2
Reporter Activity (ERRβ (GAL-L-ERRb); Table 4, dose 0.1 (unit not given), None 7.21/8.67): 8.63
Fold Activation (ERRβ (GAL-L-ERRb); Table 4, dose 0.3 (unit not given), None 1/1.2): 0.95
Reporter Activity (ERRβ (GAL-L-ERRb); Table 4, dose 0.3 (unit not given), None 7.21/8.67): 6.84
Fold Activation (ERRβ (GAL-L-ERRb); Table 4, dose 1 (unit not given), None 1/1.2): 0.4
Reporter Activity (ERRβ (GAL-L-ERRb); Table 4, dose 1 (unit not given), None 7.21/8.67): 2.9
Fold Activation (ERRβ (GAL-L-ERRb); Table 4, dose 3 (unit not given), None 1/1.2): 0.28
Reporter Activity (ERRβ (GAL-L-ERRb); Table 4, dose 3 (unit not given), None 7.21/8.67): 1.99
inhibition of the activity of ERRβ (ERRβ (GAL-L-ERRb); result in words): inhibit the activity
Fold Activation (ERRγ (GAL-ERRg); [1]): 0.94
Reporter Activity (ERRγ (GAL-ERRg); Table 4, DY39 dose head 0 (1st of 2), None 5.49): 5.14
Fold Activation (ERRγ (GAL-ERRg); [2]): 0.96
Reporter Activity (ERRγ (GAL-ERRg); Table 4, DY39 dose head 0 (2nd of 2), None 5.49): 5.25
Fold Activation (ERRγ (GAL-ERRg); Table 4, dose 0.1 (unit not given), None 1/1.01): 0.94
Reporter Activity (ERRγ (GAL-ERRg); Table 4, dose 0.1 (unit not given), None 5.49/5.56): 5.18
Fold Activation (ERRγ (GAL-ERRg); Table 4, dose 0.3 (unit not given), None 1/1.01): 0.91
Reporter Activity (ERRγ (GAL-ERRg); Table 4, dose 0.3 (unit not given), None 5.49/5.56): 4.97
Fold Activation (ERRγ (GAL-ERRg); Table 4, dose 1 (unit not given), None 1/1.01): 0.5
Reporter Activity (ERRγ (GAL-ERRg); Table 4, dose 1 (unit not given), None 5.49/5.56): 2.7
Fold Activation (ERRγ (GAL-ERRg); Table 4, dose 3 (unit not given), None 1/1.01): 0.3
Reporter Activity (ERRγ (GAL-ERRg); Table 4, dose 3 (unit not given), None 5.49/5.56): 1.67
inhibition of the activity of ERRγ (ERRγ (GAL-ERRg); result in words): inhibit the activity
Compound: CC(C)CC(=C(c1ccc(O)cc1)c1ccc(OCCN(C)C)cc1)c1ccccc1 (mixture of isomers) [DY39]

Reporter Activity (MH100x4; [3]): 0.39
Fold Activation (MH100x4; [4]): 0.80
Fold Activation (ERRα (GAL-ERRa); [4]): 0.61
Reporter Activity (ERRα (GAL-ERRa); [5]): 5.18
Fold Activation (ERRβ (GAL-L-ERRb); [4]): 0.53
Reporter Activity (ERRβ (GAL-L-ERRb); [6]): 0.76
Fold Activation (ERRγ (GAL-ERRg); [4]): 0.73
Reporter Activity (ERRγ (GAL-ERRg); [7]): 0.91
Compound: CCC(=C(CC)c1ccc(O)c(C(C)C)c1)c1ccc(O)cc1 [DY17]

Reporter Activity (MH100x4; [3]): 0.35
Fold Activation (MH100x4; [4]): 0.71
Fold Activation (ERRα (GAL-ERRa); [4]): 0.66
Reporter Activity (ERRα (GAL-ERRa); [5]): 5.63
Fold Activation (ERRβ (GAL-L-ERRb); [4]): 0.49
Reporter Activity (ERRβ (GAL-L-ERRb); [6]): 0.71
Fold Activation (ERRγ (GAL-ERRg); [4]): 0.91
Reporter Activity (ERRγ (GAL-ERRg); [7]): 1.14
Compound: CCC(=C(CC)c1ccc(O)c(C=C(C)C)c1)c1ccc(O)cc1 [DY16]

Compound: CC/C(=C(\c1ccc(O)cc1)c1ccc(OCCN(C)C)cc1)c1ccccc1 [4-OH Tamoxifen, (Z)-4-hydroxytamoxifen, reference compound]
Reporter Activity (ERE-TK-luc): 1.2 and 0.98 and 1.58 and 1.48 and 1.61 and 1.34
